{"source": "patent US20040029926A1", "about": "(priority 2000, published 2004)", "test": "Solubility in water, visual, confirmed by HPLC assay of a saturated solution", "format": "physicochemical", "conditions": "thermodynamic from solid", "protocol": "Solubility of the Nitrate\nThe visual solubility was confirmed by an HPLC assay of a saturated solution. Solubility: 6 mg/ml.", "data": [{"compound": "CN(CCOc1ccc(CC2SC(=O)NC2=O)cc1)c1ccccn1.O=[N+]([O-])O", "note": "(stereo not shown) [Nitrate, 5-[4-[2-(N-methyl-N-(2-pyridyl)amino)ethoxy]benzyl]thiazolidine-2,4-dione nitrate]", "values": [{"measurement": "solubility", "value": 6000, "unit": "µg/mL"}]}]}
